From paper PMC2898210 (ACS medicinal chemistry letters, 2010)

Target: polo-box domain (PBD) of human polo-like kinase 1 (Plk1) (Homo sapiens, UniProt P53350)
Test: ELISA-based PBD competition assay against p-T78 peptide of PBIP1
Type: binding

polo-box domain (PBD) of human polo-like kinase 1 (Plk1), sequence (P53350 367-603 limits assumed): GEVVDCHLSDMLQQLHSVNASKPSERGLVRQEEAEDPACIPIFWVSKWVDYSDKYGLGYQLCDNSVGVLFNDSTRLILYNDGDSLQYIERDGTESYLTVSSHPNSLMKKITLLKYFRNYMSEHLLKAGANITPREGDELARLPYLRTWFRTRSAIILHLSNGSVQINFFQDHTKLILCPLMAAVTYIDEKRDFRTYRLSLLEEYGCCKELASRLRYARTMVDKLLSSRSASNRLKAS

- Kd: ~2.7 µM
Structure (SMILES): O=c1c(O)cccc2cc(O)c(O)c(O)c12 [compound 2, Purpurogallin]
